{"source": "paper PMC8022858", "about": "“Discovery of bone morphogenetic protein 7-derived peptide sequences that attenuate the human osteoarthritic chondrocyte phenotype” (Molecular Therapy. Methods & Clinical Development, 2021)", "tested_on": "human OA cartilage explants", "experiment": "PGE2 levels in culture supernatant of cartilage explants", "assay_type": "cell-based", "conditions": "n = 5 donors, 24 h, relative to control (Figure 6D)", "protocol": "Figure 6 Peptide p[63−82] activity on OA knee joint tissues Human OA knee joint tissues were cultured for 24 h in the presence of BMP7, peptide p[63−82], or the scrambled version of peptide p[63−82] and compared to control conditions. (A) Cartilage tissues (n = 7 individual donors) were exposed to shown conditions and analyzed for COL2A1, COL10A1, and COX-2 mRNA expression by quantitative real-time PCR (normalized for 28S rRNA expression and relative to control conditions). (B) GAG release in medium from cartilage tissues (n = 5 individual donors) was determined, and data were calculated relative to the control condition. (C) PGE2 levels in culture supernatant from synovium (n = 5 donors). (D) PGE2 levels in culture supernatant from cartilage tissues from (B) (n = 5 donors). (E) PGE2 levels in culture supernatant from IPFP (n = 5 donors). (F) PGE2 levels in culture supernatant from the meniscus. Synovium, IPFP, and meniscus tissues were from the same 5 donors as the cartilage tissues in (B) and (C). PGE2 levels in conditions were calculated relative to controls for each donor. In graphs, error bars represent mean ± SEM; data are presented relative to the control condition for each time point. Statistical differences (unpaired two-tailed Student’s t test) were calculated to control condition: ∗p < 0.05, ∗∗p < 0.01, and ∗∗∗p < 0.001. […]", "data": [{"substance": "BMP7: full-length recombinant bone morphogenetic protein 7 (R&D Systems), used at 1 nM", "values": [{"measurement": "PGE2 levels from cartilage explants", "value": "reduced"}]}, {"substance": "H-AAYYSEGESAFPLNSYMNAT-OH [p[63−82]]", "values": [{"measurement": "PGE2 levels from cartilage explants", "value": "reduced"}]}]}
